We go through 2 compounds from patent publication US4347242A, “Hypocalcaemic peptides and process for their manufacture” (Ciba-Geigy Corporation, priority 1978, dated 1982).

The subject of one test is rat. The test is described as follows: rat hypocalcaemic activity test described by Kumar et al, J. Endocrinology 33, page 470 [1965] (MRC units). It counts as in vivo. The following applies: per mg of peptide or product.
In test [1] the test system is patients with increased bone turn over. Description: lowering of blood calcium level in patients with increased bone turn over. The settings on record: intravenous, intramuscular or subcutaneous injection of 0.01 to 5 mg, e.g. in 0.1 molar acetate buffer pH 4.6. It counts as in vivo, human.
For a further test, the system named is rats. The test is described as follows: lowering of plasma calcium and plasma phosphate level in tests on rats weighing 50 to 150 g. Type of test: in vivo, rat.

Where “and” joins values, the source holds several entries; their conditions need not be identical. Identical values can stand only once.

As for `CC[C@H](C)[C@H](NC(=O)[C@H](C)NC(=O)[C@@H](NC(=O)[C@H](CCC(N)=O)NC(=O)[C@@H]1CCCN1C(=O)[C@H](Cc1ccccc1)NC(=O)[C@@H](NC(=O)[C@H](Cc1c[nH]cn1)NC(=O)[C@H](Cc1ccccc1)NC(=O)[C@H](CCCCN)NC(=O)[C@H](CC(N)=O)NC(=O)[C@H](Cc1ccccc1)NC(=O)[C@H](CC(=O)O)NC(=O)[C@H](CCC(N)=O)NC(=O)[C@@H](NC(=O)[C@H](Cc1ccc(O)cc1)NC(=O)[C@@H](NC(=O)CNC(=O)[C@H](CC(C)C)NC(=O)[C@H](CCSC)NC(=O)[C@@H]1CSSC[C@H](N)C(=O)NCC(=O)N[C@@H](CC(N)=O)C(=O)N[C@@H](CC(C)C)C(=O)N[C@@H](CO)C(=O)N[C@@H]([C@@H](C)O)C(=O)N1)[C@@H](C)O)[C@@H](C)O)[C@@H](C)O)[C@@H](C)O)C(=O)NCC(=O)N[C@H](C(=O)NCC(=O)N[C@@H](C)C(=O)N1CCC[C@H]1C(N)=O)C(C)C` [HT-C2], the “activity in the rat” value in the test with rat was 100 to 200 MRC units per mg and 100-200 MRC units per mg.

Human calcitonin: the “calcium level of the blood” value in test [1] was “lowers the calcium level of the blood”. In addition, in the test on rats, the plasma calcium level entry is “lowers” and the plasma phosphate level result is given as “lowers”.
